Tested on: Tetranychus cinnabarinus
Assay: acaricidal activity test, spraying kidney bean seedlings inoculated with mites
Format: in vivo
Conditions: sprayed on kidney bean seedlings, living mites counted after 72 hours, 25° C.
Description: This test example tested the acaricidal activity of the compounds prepared above, in particular against Tetranychus cinnabarinus, and a specific test process was as follows: • (1) compounds to be tested were dissolved with acetone, and the resulting solution was diluted with a 0.1 wt % Tween 80 aqueous solution to a desired concentration (see test examples 1-A to 1-D below in detail) to prepare medicaments, with the acetone content of not more than 5 wt %; • (2) one real leaf was removed from kidney bean seedlings grown to two real leaves, and the number of mites inoculated was investigated 24 hours after inoculation of Tetranychus cinnabarinus (the number of Tetranychus cinnabarinus inoculated for each kidney bean seedling was 50-150). The whole plants of three kidney bean seedlings were separately sprayed with the medicaments prepared in the step (1) by using a hand-held sprayer (the spray amount was 0.5 mL per plant). After the treatment, the kidney bean seedlings were placed in a constant temperature observation room (25° C.) for observation, the number of living mites was investigated after 72 hours, and the lethality was calculated: Lethality (%)=(the number of mites inoculated−the number of living mites after the medicaments are sprayed)/the number of mites inoculated×100.

CCS(=O)(=O)n1c(-c2ccc(F)c(C(F)(F)F)c2)nc2ccccc21 [Compound 1-27]
Lethality (6.25 mg/L): 90%
Lethality (25 mg/L): 100%
Lethality (100 mg/L): 100%

CCS(=O)(=O)n1c(-c2ccc(Cl)c(C(F)(F)F)c2)nc2ccccc21 [Compound 1-28]
Lethality (6.25 mg/L): 97%
Lethality (25 mg/L): 100%
Lethality (100 mg/L): 100%

CCS(=O)(=O)n1c(-c2cc(C(F)(F)F)cc(C(F)(F)F)c2)nc2ccccc21 [Compound 1-47]
Lethality (6.25 mg/L): 99%
Lethality (25 mg/L): 100%
Lethality (100 mg/L): 100%

CCS(=O)(=O)n1c(-c2ccc(F)c(C(F)(F)F)c2)nc2cc(F)c(F)cc21 [Compound 1-56]
Lethality (6.25 mg/L): 95%
Lethality (25 mg/L): 100%
Lethality (100 mg/L): 100%

CCS(=O)(=O)n1c(-c2ccc(Cl)c(C(F)(F)F)c2)nc2cc(F)c(F)cc21 [Compound 1-57]
Lethality (6.25 mg/L): 92%
Lethality (25 mg/L): 100%
Lethality (100 mg/L): 100%

CS(=O)(=O)n1c(-c2cc(Cl)cc(C(F)(F)F)c2)nc2ccccc21 [Compound 1-133]
Lethality (6.25 mg/L): 99%
Lethality (25 mg/L): 100%
Lethality (100 mg/L): 100%

CCS(=O)(=O)n1c(-c2cc(F)cc(C(F)(F)F)c2)nc2ccccc21 [Compound 1-174]
Lethality (6.25 mg/L): 98%
Lethality (25 mg/L): 98%
Lethality (100 mg/L): 100%

CCS(=O)(=O)n1c(-c2cc(Br)cc(OC(F)(F)F)c2)nc2ccccc21 [Compound 1-186]
Lethality (6.25 mg/L): 100%
Lethality (25 mg/L): 100%
Lethality (100 mg/L): 100%

CCS(=O)(=O)n1c(-c2cc(Cl)cc(C(F)(F)F)c2)nc2ccccc21 [Compound 1-213]
Lethality (6.25 mg/L): 99%
Lethality (25 mg/L): 100%
Lethality (100 mg/L): 100%

CCS(=O)(=O)n1c(-c2cc(Br)cc(C(F)(F)F)c2)nc2ccccc21 [Compound 1-214]
Lethality (6.25 mg/L): 97%
Lethality (25 mg/L): 100%
Lethality (100 mg/L): 100%

CCS(=O)(=O)n1c(-c2cc(C#N)cc(C(F)(F)F)c2)nc2ccccc21 [Compound 1-218]
Lethality (6.25 mg/L): 98%
Lethality (25 mg/L): 99%
Lethality (100 mg/L): 100%

CCS(=O)(=O)n1c(-c2cc([N+](=O)[O-])cc(C(F)(F)F)c2)nc2ccccc21 [Compound 1-235]
Lethality (6.25 mg/L): 99%
Lethality (25 mg/L): 99%
Lethality (100 mg/L): 100%

CCS(=O)(=O)n1c(-c2cc(Cl)cc(OC(F)(F)F)c2)nc2ccccc21 [Compound 1-239]
Lethality (6.25 mg/L): 100%
Lethality (25 mg/L): 100%
Lethality (100 mg/L): 100%

CCCS(=O)(=O)n1c(-c2cc(C(F)(F)F)cc(C(F)(F)F)c2)nc2ccccc21 [Compound 1-254]
Lethality (6.25 mg/L): 97%
Lethality (25 mg/L): 100%
Lethality (100 mg/L): 100%

CCCCS(=O)(=O)n1c(-c2cc(C(F)(F)F)cc(C(F)(F)F)c2)nc2ccccc21 [Compound 1-255]
Lethality (6.25 mg/L): 91%
Lethality (25 mg/L): 100%
Lethality (100 mg/L): 100%

CCS(=O)(=O)n1c(-c2cc(C(F)(F)F)cc(C(F)(F)F)c2)nc2cc(F)c(F)cc21 [Compound 1-257]
Lethality (6.25 mg/L): 98%
Lethality (25 mg/L): 100%
Lethality (100 mg/L): 100%

CCS(=O)(=O)n1c(-c2cc(C(F)(F)F)cc(C(F)(F)F)c2)nc2cc(Cl)c(Cl)cc21 [Compound 1-265]
Lethality (6.25 mg/L): 100%
Lethality (25 mg/L): 100%
Lethality (100 mg/L): 100%

CCS(=O)(=O)n1c(-c2ccccc2)nc2ccccc21 [KC1, reference compound]
Lethality (25 mg/L): 52%
Lethality (100 mg/L): 82%

CCS(=O)(=O)n1c(-c2ccccc2F)nc2ccccc21 [KC2, reference compound]
Lethality (25 mg/L): 49%
Lethality (100 mg/L): 98%

CCS(=O)(=O)n1c(-c2ccccc2Cl)nc2ccccc21 [KC3, reference compound]
Lethality (25 mg/L): 70%
Lethality (100 mg/L): 88%

CCS(=O)(=O)n1c(-c2ccc(Cl)cc2)nc2ccccc21 [KC4, reference compound]
Lethality (25 mg/L): 57%
Lethality (100 mg/L): 37%

CCS(=O)(=O)n1c(-c2ccc(F)cc2)nc2ccccc21 [KC5, reference compound]
Lethality (25 mg/L): 40%
Lethality (100 mg/L): 66%

CCS(=O)(=O)n1c(-c2cc(Cl)cc(Cl)c2)nc2ccccc21 [KC6, reference compound]
Lethality (25 mg/L): 86%
Lethality (100 mg/L): 100%
